Tests used:
[1] = tested on: mice; conditions: cited from earlier work
[2] = tested on: several strains of Staphylococcus aurelius, including Methicillin-resistant Staphylococcus aureus isolates; test: MIC50 on Staphylococcus strains including Methicillin-resistant Staphylococcus aureus isolates; assay type: cell-based; conditions: same bacteria strains, incl. MRSA isolates; comparator 4-chlorophenyl 2-thienyl iodonium chloride
[3] = tested on: human epithelial cells; test: tests of toxicity on human epithelial cells; assay type: cell-based; conditions: approximate levels of 0.25 millimole concentrations; compared with controls
[4] = tested on: E. Coli; test: challenging the growth of E. Coli with measurement of optical density of media; assay type: cell-based; conditions: same optical density reduction; comparator 4-chlorophenyl-2-thienyliodonium bromide
Source text: In an experiment challenging the growth of E. Coli with measurement of optical density of media, the present iodonium composition, 3,5-dimethyl 4-chlorophenyl 2-thienyl iodonium bromide, suppressed the optical density of the E. Coli media at one tenth the concentration needed to accomplish the same optical density reduction utilizing 4-chlorophenyl-2-thienyliodonium bromide. Optical density of the media is a semi-quantitative measure of the presence of growing bacteria. Reduced density indicates the test compounds are retarding bacterial growth. Thus, 3,5-dimethyl 4-chlorophenyl 2-thienyl iodonium bromide, which is non-toxic to mammals, has greater antimicrobial activity than 4-chlorophenyl-2-thienyliodonium bromide.

SMILES	oral median lethal dose (LD50) [1]	MIC50 as fraction of the MIC50 for 4-chlorophenyl 2-thienyl iodonium chloride [2]	toxicity on human epithelial cells [3]	concentration needed to suppress optical density of E. Coli media, as fraction of that needed with 4-chlorophenyl-2-thienyliodonium bromide [4]
Clc1ccc([I+]c2cccs2)cc1.[Cl-] [4-chlorophenyl-2-thienyliodonium chloride]	greater than 4000 mg/kg	–	–	–
Cc1cc([I+]c2cccs2)cc(C)c1Cl.[Br-] [3,5-dimethyl 4-chlorophenyl 2-thienyl iodonium bromide]	–	one fifth	lack of toxicity similar to that of controls	one tenth
Clc1ccc([I+]c2cccs2)cc1.[Br-] [4-chlorophenyl-2-thienyliodonium bromide, reference compound]	–	–	lack of toxicity similar to that of controls	–

From patent US8053478B1, “Antimicrobial diaryl iodonium compositions and method” (Cornell Development Group, LLC, priority 2007, dated 2011)
